Data as given in patent publication US20040122089A1, “Novel eicosanoid analgesics” (priority 2001, published 2004).
Where two headings read alike, the source gives them in different places.

Tests used:
[1] = test system: AMT; type: cell-based, rat; conditions: [14C]AEA uptake, RBL-2H3 cells; read-out: AEA transport (IC50)
Protocol: AEA. Cells were incubated with [^14C] AEA for 5 min at 37° C., in the presence or absence of varying concentrations of the inhibitors. Residual [^14C] AEA in the incubation media after extraction with CHCl3/CH3OH 2:1 (by vol.), determined by scintillation counting of the lyophilized organic phase, was used as a measure of the AEA that was taken up by cells.
(§1) CP55940 from whole rat brain membranes.

[2] = molecular target: human VR1 receptor (Homo sapiens, UniProt Q8NER1); experiment: Cytosolic calcium concentration assay in HEK-hVR1 cells (Example 3); conditions: for Emax: read-out: hVR1 efficacy (maximal effect, in parentheses)
[3] = molecular target: T1, CB1 receptors (Rattus norvegicus, UniProt P20272); experiment: CB1 receptor binding, [3H]CP55940, whole rat brain membranes (Example 3)
[4] = test system: mice; experiment: SR141716A pre-treatment before compounds in spontaneous activity and tail-flick tests in mice; type: in vivo, mouse; conditions: for effect of SR141716A pre-treatment on the compound's effects in the tetrad tests: SR141716A 3 mg/kg i.v., 10 min pre-treatment; for Spontaneous Activity (Beam Interuptions), SR14176a + comp / Tail-Flick Latency (% MPE), SR14176a + comp: SR14176A 3 mg/kg i.v. 10 min before
Protocol: (§2) The analogs were administered to mice by tail-vein injection and evaluated for their ability to produce hypomotility, hypothermia, and antinociception. These pharmacological measures were determined in the same mouse at a time when maximal activity was present. […] A 10-sec maximum latency was used. Antinociception was expressed as % MPE as described below.
Data are means ±S.E. of n≧six animals.

[5] = test system: mice; experiment: Mouse tetrad of behavioral tests, i.v. (Example 3); type: in vivo; conditions: for Average ED50 / R.I. ED50 / Rectal temp. ED50 / Spontan. activity ED50 / Tail Flick ED50: i.v.; for R.I. ED50 / Rectal temp. ED50 / Spontan. activity ED50 / Tail Flick ED50: mean (range)
Protocol: as §2
Data Analysis—For production of hypomotility and hypothermia, the data were expressed as a percentage of control activity and change in temperature, respectively. Antinociception was calculated according to the following equation.
% MPE=−((test latency-control latency)/(10s-control latency))×100
At least six animals were treated with each dose-response relationships could be determined for each analog. ED50 values were determined from least-squares unweighted linear regression analysis of log dose-response plots.
The ED50 (milligrams per kilogram, i.v.) does for inhibition of sector crossings (spontaneous activity) in an open field, antinociception (delay in seconds in the tail-flick response), decrease of rectal temperature in degrees Celsius, and induction of time spent in immobility on a ring are shown. Data are means (and ranges) of N>six animals.

[6] = molecular target: T2, FAAH (Rattus norvegicus, UniProt P97612); experiment: Fatty acid amide hydrolase assay, rat brain membranes; type: biochemical
T2 construct: membranes prepared from frozen brains of CD rats (Charles River, France); from tissue; host or cells: brain membranes of CD rats
T2 sequence (P97612 1-579): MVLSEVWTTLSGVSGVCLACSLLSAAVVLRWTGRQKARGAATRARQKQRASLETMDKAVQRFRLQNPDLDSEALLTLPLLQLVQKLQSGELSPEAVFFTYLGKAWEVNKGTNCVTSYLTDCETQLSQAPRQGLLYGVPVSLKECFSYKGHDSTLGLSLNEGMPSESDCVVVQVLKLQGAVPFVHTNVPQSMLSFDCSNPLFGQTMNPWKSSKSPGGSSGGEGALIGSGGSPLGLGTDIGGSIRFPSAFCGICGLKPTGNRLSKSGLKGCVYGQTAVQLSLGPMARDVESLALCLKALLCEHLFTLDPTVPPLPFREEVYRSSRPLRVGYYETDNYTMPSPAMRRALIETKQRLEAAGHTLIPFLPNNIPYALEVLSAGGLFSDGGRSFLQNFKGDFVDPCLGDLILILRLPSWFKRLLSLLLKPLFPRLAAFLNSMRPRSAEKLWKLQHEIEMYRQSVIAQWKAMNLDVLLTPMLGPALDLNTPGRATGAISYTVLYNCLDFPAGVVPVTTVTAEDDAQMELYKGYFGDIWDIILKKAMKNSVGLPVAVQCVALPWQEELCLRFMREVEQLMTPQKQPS
Protocol: Fatty acid amide hydrolase assay—The effect of compounds on the enzymatic hydrolysis of AEA was studied using membranes prepared from frozen brains of CD rats (Charles River, France), incubated with the test compounds and [^14C] AEA (9 μM) in 50 mM Tris-HCl, pH 9, for 30 min at 37° C. [^14C] Ethanolamine produced from [^14C] AEA hydrolysis was measured by scintillation counting of the aqueous phase after extraction of the incubation mixture with 2 volumes of CHCl3/CH3OH 2:1 (by vol.).
as §1

[7] = molecular target: T1, CB1 receptors; experiment: Agonist-stimulated [35S]GTPγS binding, rat hippocampal membranes; conditions: for Emax: read-out: GTPγS binding (Emax)
[8] = test system: anandamide membrane transporter (AMT); conditions: RBL-2H3 cells; read-out: AMT IC50 (previously reported); cited from earlier work
[9] = test system: mice; conditions: cited from earlier work
[10] = test system: rat or human VR1; conditions: cited from earlier work
[11] = molecular target: T3, rat or human VR1 (UniProt Q8NER1); conditions: Xenopus oocytes or HEK cells over-expressing rat or human VR1; read-out: VR1 EC50 (literature); cited from earlier work
T3 construct: other: Xenopus oocytes or HEK cells over-expressing rat or human VR1

Sequence of human VR1 receptor (Q8NER1 whole entry): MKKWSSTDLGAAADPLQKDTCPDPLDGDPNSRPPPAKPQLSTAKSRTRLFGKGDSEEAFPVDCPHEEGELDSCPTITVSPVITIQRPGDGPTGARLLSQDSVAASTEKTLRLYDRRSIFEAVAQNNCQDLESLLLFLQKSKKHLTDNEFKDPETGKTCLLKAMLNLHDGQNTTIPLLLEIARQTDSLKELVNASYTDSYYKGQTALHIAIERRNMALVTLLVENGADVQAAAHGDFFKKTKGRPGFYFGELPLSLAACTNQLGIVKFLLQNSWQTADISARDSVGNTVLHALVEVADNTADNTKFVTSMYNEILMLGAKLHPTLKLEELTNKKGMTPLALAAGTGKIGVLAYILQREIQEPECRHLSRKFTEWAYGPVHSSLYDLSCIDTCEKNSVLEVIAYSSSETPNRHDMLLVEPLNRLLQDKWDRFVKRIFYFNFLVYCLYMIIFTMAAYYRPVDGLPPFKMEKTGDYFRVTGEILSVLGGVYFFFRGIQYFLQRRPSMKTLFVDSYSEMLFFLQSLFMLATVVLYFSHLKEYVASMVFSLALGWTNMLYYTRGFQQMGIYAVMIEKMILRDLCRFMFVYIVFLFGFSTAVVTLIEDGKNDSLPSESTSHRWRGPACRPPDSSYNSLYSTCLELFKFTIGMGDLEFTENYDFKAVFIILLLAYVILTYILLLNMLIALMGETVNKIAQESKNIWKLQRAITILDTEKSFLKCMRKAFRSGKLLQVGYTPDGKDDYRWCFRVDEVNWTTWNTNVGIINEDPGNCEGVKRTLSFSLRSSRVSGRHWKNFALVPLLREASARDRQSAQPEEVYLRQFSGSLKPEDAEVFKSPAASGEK
T1 sequence (P20272 whole entry): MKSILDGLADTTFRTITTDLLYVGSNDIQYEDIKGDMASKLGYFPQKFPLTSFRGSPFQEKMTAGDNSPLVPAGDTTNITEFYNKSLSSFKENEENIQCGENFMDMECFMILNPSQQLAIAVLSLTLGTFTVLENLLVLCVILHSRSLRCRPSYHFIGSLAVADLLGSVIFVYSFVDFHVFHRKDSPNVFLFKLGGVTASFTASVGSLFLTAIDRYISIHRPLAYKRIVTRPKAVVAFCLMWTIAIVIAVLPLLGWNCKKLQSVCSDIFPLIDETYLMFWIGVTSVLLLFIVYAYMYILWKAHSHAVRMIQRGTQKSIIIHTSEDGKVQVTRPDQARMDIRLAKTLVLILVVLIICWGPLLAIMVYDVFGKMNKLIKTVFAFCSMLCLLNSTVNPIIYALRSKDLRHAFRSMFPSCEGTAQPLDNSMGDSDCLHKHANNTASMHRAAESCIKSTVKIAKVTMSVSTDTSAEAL

| Compound | IC50 [1] | EC50 [2] | Emax [2] | Ki ([3]; read-out: CB1 affinity Ki) | Average ED50 [5] | R.I. ED50 [5] | Rectal temp. ED50 [5] | Spontan. activity ED50 [5] | Tail Flick ED50 [5] | IC50 [6] | Emax [7] | other results |
| --- | --- | --- | --- | --- | --- | --- | --- | --- | --- | --- | --- | --- |
| CCCCC/C=C\C/C=C\C/C=C\C/C=C\CCCC(=O)NCc1ccc(O)c(Cl)c1 [Compound O-2094] | 19000 ± 2100 nM | 10 nM | 63.5% | 275 ± 16 nM | 1.68 milligrams per kilogram | 1.93 (1.56-2.39) milligrams per kilogram | 3.77 (1.21-11.76) milligrams per kilogram | 0.52 (0.38-0.71) milligrams per kilogram | 0.49 (0.35-0.67) milligrams per kilogram | 4500 ± 700 nM | 15% | Ki ([3]; read-out: CB1 affinity Ki, listed as 0-2094): 274 ± 19 nM; effect of SR141716A pre-treatment on the compound's effects in the tetrad tests [4]: not affected; effect of SR141716A pre-treatment on the compound's effects in the tetrad tests ([4]; listed as 0-2094): No inhibitory effect; Spontaneous Activity (Beam Interuptions), vehicle + compound ([4]; dose 1 mg/kg i.v.): 83 ± 17 Beam Interuptions; Tail-Flick Latency (% MPE), vehicle + compound ([4]; dose 1 mg/kg i.v.): 94 ± 5 % MPE; Spontaneous Activity (Beam Interuptions), SR14176a + comp ([4]; dose 1 mg/kg i.v.): 116 ± 21 Beam Interuptions; Tail-Flick Latency (% MPE), SR14176a + comp ([4]; dose 1 mg/kg i.v.): 100 % MPE; Spontaneous Activity (Beam Interuptions), vehicle + compound ([4]; dose 3 mg/kg i.v.): 118 ± 16 Beam Interuptions; Tail-Flick Latency (% MPE), vehicle + compound ([4]; dose 3 mg/kg i.v.): 100 % MPE; Spontaneous Activity (Beam Interuptions), SR14176a + comp ([4]; dose 3 mg/kg i.v.): 52 ± 19 Beam Interuptions; Tail-Flick Latency (% MPE), SR14176a + comp ([4]; dose 3 mg/kg i.v.): 96 ± 4 % MPE; ED50 ([5]; Mus musculus, iv, read-out: ED50 values, range over the four parameters of the mouse 'tetrad'): 0.49 to 3.77 mg/kg; EC50 [7]: 131 nM; activity in the GTPγS binding assay [7]: low efficacy partial agonist |
| CCCCC/C=C\C/C=C\C/C=C\C/C=C\CCCC(=O)NCc1ccc(O)c(OC)c1 [arvanil, N-[3-methoxy-4-hydroxy-benzyl]-arachidonamide] |  |  |  |  |  |  |  |  |  |  |  | IC50 [8]: 3600 nM; ED50 in the 'tetrad' [9]: 0.085 mg/kg; fold more potent at VR1 than CB1 receptors [10]: approximately 500 fold |
| CCCCC/C=C\C/C=C\C/C=C\C/C=C\CCCC(=O)N(C)Cc1ccc(O)c(OC)c1 [Compound O-1988] | 10000 ± 2100 nM | 25 ± 3.9 nM | 69.1% | 2830 ± 175 nM | 5.98 milligrams per kilogram | 4.08 (2.99-5.56) milligrams per kilogram | 8.74 (5.61-13.60) milligrams per kilogram | 3.11 (1.54-6.29) milligrams per kilogram | 7.98 (5.17-12.34) milligrams per kilogram | > 50000 nM | 0% | effect of SR141716A pre-treatment on the compound's effects in the tetrad tests [4]: not affected; Spontaneous Activity (Beam Interuptions), vehicle + compound ([4]; dose 3 mg/kg i.v.): 766 ± 157 Beam Interuptions; Tail-Flick Latency (% MPE), vehicle + compound ([4]; dose 3 mg/kg i.v.): 54 ± 9 % MPE; Spontaneous Activity (Beam Interuptions), SR14176a + comp ([4]; dose 3 mg/kg i.v.): 689 ± 68 Beam Interuptions; Tail-Flick Latency (% MPE), SR14176a + comp ([4]; dose 3 mg/kg i.v.): 67 ± 15 % MPE; Spontaneous Activity (Beam Interuptions), vehicle + compound ([4]; dose 10 mg/kg i.v.): 179 ± 34 Beam Interuptions; Tail-Flick Latency (% MPE), vehicle + compound ([4]; dose 10 mg/kg i.v.): 100 % MPE; Spontaneous Activity (Beam Interuptions), SR14176a + comp ([4]; dose 10 mg/kg i.v.): 117 ± 17 Beam Interuptions; Tail-Flick Latency (% MPE), SR14176a + comp ([4]; dose 10 mg/kg i.v.): 100 % MPE |
| CCCCC/C=C\C/C=C\C/C=C\C/C=C\CCCC(=O)NCCO [AEA, arachidonoylethanolamide] |  |  |  |  |  |  |  |  |  |  |  | EC50 [11]: 1000 to 5000 nM |
| CCCCC/C=C\C/C=C\C/C=C\C/C=C\CCCNC(=S)NCc1ccc(O)c(Cl)c1 [Compound O-2109] | 3800 ± 700 nM | 4 ± 1.1 nM |  | 1800 ± 204 nM | 0.15 milligrams per kilogram | 0.15 (0.10-0.23) milligrams per kilogram | 0.33 (0.02-5.06) milligrams per kilogram | 0.02 (0.02-0.03) milligrams per kilogram | 0.09 (0.06-0.12) milligrams per kilogram | > 50000 nM | 0% | fold less potent than O-2095 at VR1 [2]: 10 fold |
| CCCCC/C=C\C/C=C\C/C=C\C/C=C\CCCNC(=O)NCc1ccc(O)c(OC)c1 [Compound O-1987] | 19300 ± 3300 nM | 0.7 ± 0.2 nM | 80.6% | 1720 ± 200 nM | 0.09 milligrams per kilogram | 0.09 (0.06-0.12) milligrams per kilogram | 0.08 (0.03-0.20) milligrams per kilogram | 0.06 (0.04-0.08) milligrams per kilogram | 0.12 (0.08-0.17) milligrams per kilogram | 2000 ± 400 nM | 0% |  |
| CCCCC/C=C\C/C=C\C/C=C\C/C=C\CCCC(=O)NCc1ccc(OC(=O)CCCN2CCOCC2)c(OC)c1 [Compound O-2142] | 30000 ± 4300 nM | 0.6 ± 0.2 nM | 86.6% | 483 ± 63 nM | 0.17 milligrams per kilogram | 0.17 (0.13-0.22) milligrams per kilogram | 0.11 (0.07-0.17) milligrams per kilogram | 0.20 (0.16-0.24) milligrams per kilogram | 0.19 (0.15-0.25) milligrams per kilogram | 9100 ± 1700 nM | 0% | activity in the GTPγS binding assay [7]: inactive |
| CCCCC/C=C\C/C=C\C/C=C\C/C=C\CCCC(=O)N[C@H](C)CO [Met-AEA, (R)-1′-Methyl-2′-hydroxy-ethyl-arachidonamide] |  |  |  |  |  |  |  |  |  |  |  | IC50 [8]: 24500 nM |
